# Entries after “also recorded” stand apart in the source; their conditions may differ.
# Experiments:
# IGF2BP2 [1] = molecular target: T1, IGF2BP2 (Homo sapiens, UniProt Q9Y6M1); assay: Biological assays of IGF2BP2 inhibition (purified fractions and synthesized compounds); details: for effectiveness, synthesized compound: compounds synthesized based on the predicted structures
# Description: (§1) Virtual screening of library compounds and lead compound identification. NCI DTP library of approximately 260,000 compounds was screened. Screening included docking on the KH3 domain of IGF2BP2. Over 500 compounds were identified for experimental validation. NSC69557, termed CWI1, was identified as a top hit. Mass spectrometry (MS) identified CWI1 as a mixture including three major peaks: CWI1, CWI1-1, and CWI1-2. Their structures were predicted based on nuclear magnetic resonance (NMR) and MS data. The compound peaks for the predicted CWI1-1 and CWI1-2 were purified by HPLC. […] CWI1, CWI1-1, and CWI1-2 were synthesized based on the predicted structures. […] Thus, the structures of CWI1-1 and CWI1-2 were confirmed.
# [2] = Body weight of BMT recipient mice; assay type: in vivo; details: 5 mg/kg, i.v., daily for 7 days
# Protocol: (§2) FIGS. 8A-8B. […] FIG. 8A: Ten days after BMT with primary murine MLL-AF9 AML cells, recipient mice were given vehicle control (CT) or CWI1-2 daily for 7 days (5 mg/kg, i.v.). Peripheral blood was taken 3 days after the last treatment and assessed by flow cytometry.
# [3] = system: IGF2BP2-high AML cell lines; assay: Cell differentiation in IGF2BP2-high AML cell lines; assay type: cell-based, human; details: 24-hour treatment
# Description: (§3) FIGS. 7A-7B. Effects of CWI1-2 on cell differentiation in acute myeloid leukemia (AML).
# IGF2BP2 target genes = assay: Expression of IGF2BP2 target genes and of IGF2BP2 after treatment; assay type: cell-based; details: after compound treatment
# Description: (§4) FIGS. 4A-4B. CWI1-2 inhibits binding of IGF2BP2 to m^6A-modified RNA and suppresses expression of the oncogenic targets of IGF2BP2.
# [4] = molecular target: IGF2BP2 binding to m^6A-modified single strand RNA (SS-m^6A) (Homo sapiens, UniProt Q9Y6M1); assay: RNA pull-down assay; assay type: biochemical
# Description: as §4
# [5] = system: IGF2BP2-low acute leukemia cell lines; assay: Apoptosis in IGF2BP2-low acute leukemia cell lines; assay type: cell-based, human; details: 24-hour treatment
# Description: (§5) FIGS. 6A-6B. Effects of CWI1-2 on apoptosis in human acute myeloid leukemia (AML) cells.
# IGF2BP2 [6] = molecular target: T1, IGF2BP2; assay: Cellular Thermal Shift Assay (CETSA); assay type: binding; details: CETSA also run for IGF2BP1 and IGF2BP3; western blot
# Protocol: FIGS. 2A-2C. […] Cellular Thermal Shift Assay (CETSA) was conducted. The principle of the assay is unbound proteins denature and precipitate at elevated temperatures, while drug-bound proteins tend to remain in solution. Cells are seeded and treated. Cell pellets are washed, harvested, and heated. Cells are lysed and centrifuged. Western blot is performed. FIG. 2A: Results of CETSA for IGF2BP2. FIG. 2B: Results of CETSA for IGF2BP1. FIG. 2C: Results of CETSA for IGF2BP3.
# IGF2BP2 [7] = molecular target: T1, IGF2BP2; assay: Drug Affinity Responsive Target Stability (DARTS) assay; assay type: binding; details: protection from degradation by proteases
# Protocol: FIG. 3. […] Drug Affinity Responsive Target Stability (DARTS) assay was performed. The principle of the assay is binding of compound to proteins protects proteins from degradation by proteases.
# [8] = system: primary murine MLL-AF9 AML cells; assay: Engraftment of AML cells in bone marrow transplant (BMT) recipient mice; assay type: in vivo; details: 5 mg/kg, i.v., daily for 7 days from ten days after BMT; peripheral blood 3 days after last treatment, flow cytometry
# Protocol: as §2
# [9] = system: IGF2BP2-low acute leukemia cell lines; assay: Cell differentiation in IGF2BP2-low acute leukemia cell lines; assay type: cell-based; details: 24-hour treatment
# Description: as §3
# [10] = system: IGF2BP2-high AML cell lines; assay: Apoptosis in IGF2BP2-high AML cell lines; assay type: cell-based, human; details: 24-hour treatment
# Description: as §5
# [11] = system: human acute myeloid leukemia (AML) cells; assay: Anti-cancer activity in vitro (viability of human AML cells); assay type: cell-based
# Description: FIGS. 5A-5E. IC50 of the lead compound CWI1-2 in human acute myeloid leukemia (AML) cells. FIG. 5A: Relative viability vs. CWI1-2 concentration in healthy bone marrow #1. FIG. 5B: Relative viability vs. CWI1-2 concentration in healthy bone marrow #2. FIG. 5C: Relative viability vs. CWI1-2 concentration in AML blast cells collected from a primary AML patient. FIG. 5D: Relative survival vs. log10 concentration of CWI1-2 in IGF2BP2-high AML cell lines. FIG. 5E: Relative survival vs. log10 concentration of CWI1-2 in IGF2BP2-low AML cell lines.
# KH3 domain of IGF2BP2 = molecular target: T2, KH3 domain of IGF2BP2 (Homo sapiens, UniProt Q9Y6M1); assay: Virtual screening of NCI DTP library (docking) followed by experimental validation; details: approximately 260,000 compounds screened, over 500 taken to experimental validation
# T2 construct: Screening included docking on the KH3 domain of IGF2BP2
# Description: as §1
# T1 sequence (Q9Y6M1 whole entry, the tested form may be a part): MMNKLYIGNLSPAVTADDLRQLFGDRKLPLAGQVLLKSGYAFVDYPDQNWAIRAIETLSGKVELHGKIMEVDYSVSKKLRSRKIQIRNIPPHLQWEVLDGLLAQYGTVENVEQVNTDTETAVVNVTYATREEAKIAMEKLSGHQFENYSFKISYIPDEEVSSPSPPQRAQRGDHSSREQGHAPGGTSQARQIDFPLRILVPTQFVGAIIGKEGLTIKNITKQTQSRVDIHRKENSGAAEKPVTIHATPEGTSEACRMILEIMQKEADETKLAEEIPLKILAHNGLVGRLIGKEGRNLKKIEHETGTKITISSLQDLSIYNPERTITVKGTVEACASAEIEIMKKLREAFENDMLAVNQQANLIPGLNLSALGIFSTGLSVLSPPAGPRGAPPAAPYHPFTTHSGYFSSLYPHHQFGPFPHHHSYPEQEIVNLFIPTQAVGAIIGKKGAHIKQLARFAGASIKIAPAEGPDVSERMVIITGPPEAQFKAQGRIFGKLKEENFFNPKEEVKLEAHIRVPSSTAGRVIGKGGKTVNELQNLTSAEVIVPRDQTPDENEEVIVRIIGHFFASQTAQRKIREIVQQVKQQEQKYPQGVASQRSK
# Chain of IGF2BP2 binding to m^6A-modified single strand RNA (SS-m^6A) (Q9Y6M1 whole entry): as the sequence (Q9Y6M1 whole entry, the tested form may be a part) above
# T2 sequence (Q9Y6M1 427-492 limits assumed): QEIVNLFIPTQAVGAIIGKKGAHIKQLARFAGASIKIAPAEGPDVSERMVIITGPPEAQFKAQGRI
"effectiveness, synthesized compound (IGF2BP2 [1])","activity as inhibitor of IGF2BP2, HPLC-purified fraction (IGF2BP2 [1]; fractions purified by HPLC from the NSC69557 mixture)",binding to IGF2BP2 (DARTS) (IGF2BP2 [7]),hit ranking in library screening (KH3 domain of IGF2BP2),Structure (SMILES),effect on body weight of recipient mice [2],cell differentiation [3],IGF2BP2 expression (IGF2BP2 target genes),expression of IGF2BP2 target genes (IGF2BP2 target genes),binding of IGF2BP2 to m^6A-modified RNA in the presence of compound [4],apoptosis [5],binding to IGF2BP2 (CETSA) (IGF2BP2 [6]),engraftment of AML cells in BMT recipient mice [8],cell differentiation [9],apoptosis [10],anti-cancer activity in vitro [11]
effective,,,,NN/C(=N\N=C\c1cc(Cl)ccc1O)N/N=C\c1cc(Cl)ccc1O [CWI1-1],,,,,,,,,,,
much more effective,most active inhibitor of IGF2BP2,direct and preferential binding,,Oc1ccc(Cl)cc1/C=N\N/C(=N/N=C/c1cc(Cl)ccc1O)N/N=C/c1cc(Cl)ccc1O [CWI1-2],little effect on body weight,induces remarkable cell differentiation; also recorded: significantly promoted,without affecting IGF2BP2 expression,reduces expression of IGF2BP2 target genes; also recorded: suppressing expression of its oncogenic targets such as MYC oncogene,decreased binding of IGF2BP2 to m^6A-modified single strand RNA (SS-m^6A); also recorded: prevent IGF2BP2 from binding to its mRNA targets; also recorded: specifically inhibits binding of IGF2BP2 to its mRNA targets with m^6A modification,much less likely,direct and preferential binding; also recorded: specifically binds to IGF2BP2,inhibits engraftment; also recorded: remarkably inhibit engraftment,much less likely,induces remarkable apoptosis; also recorded: significantly promoted,potent anti-cancer activities in vitro at nanomolar concentrations; also recorded: potent anti-cancer efficacy
less effective,,,top hit,N/C(=N\N=C\c1cc(Cl)ccc1O)N/N=C\c1cc(Cl)ccc1O [CWI1],,,,,,,,,,,

# From patent publication US12590056B2, “IGF2BP2 inhibitors and uses thereof” (CITY OF HOPE, priority 2020, dated 2026)
